We go through 37 compounds from PubChem BioAssay AID489010 (Southern Research Specialized Biocontainment Screening …, 2010).

Where “and” joins values, the source holds several entries; their conditions need not be identical. Identical values can stand only once. Calls of active or inactive are those of the source. How the calls were made is not given here.

This assay is described as follows: M. tuberculosis H37Rv growth inhibition, dose response, strain H37Rv (AID 489010). To be noted: M. tuberculosis H37Rv growth inhibition; at 100 µM (top of the series).
Turning to `Cc1nn(C)c(C)c1C1C(C#N)=C(N)Oc2n[nH]c(C)c21` (configuration not stated), the growth inhibition was 2.21% (inactive). For `O=C(Cc1cc(=O)[nH][nH]1)N/N=C/c1c(Cl)cccc1Cl`, the growth inhibition was 9.07% (inactive). Turning to `N#CC(C#N)C(c1ccsc1)c1c(-c2ccccc2)[nH][nH]c1=O` (configuration not stated), the growth inhibition was -3.85% (inactive).

Turning to `C/C(=N\NC(=O)Cc1cc(=O)[nH][nH]1)c1cccc([N+](=O)[O-])c1`, the growth inhibition is 2.86% (inactive). On to `CC(=O)Nc1cc(OC(=O)c2ccco2)cc(OC(=O)c2ccco2)c1`, for which the growth inhibition is 1.93% (inactive).

Take `O=C(Cc1cc(=O)[nH][nH]1)N/N=C/c1ccccc1Cl`: the growth inhibition was 2.61% (inactive).

For the compound `CCCc1[nH]nc2c1C(c1ccoc1)C(C#N)=C(N)O2` (configuration not stated), the growth inhibition was 1.3% (inactive). The same measure for `O=c1cc(-c2ccc(Cl)c(Cl)c2)[nH][nH]1`: 1.79% (inactive). The figure for `O=C(CCCN1C(=O)/C(=C/c2cccs2)SC1=S)Nc1ccc(O)cc1` is 21.9% (inactive). Turning to `C/C(=N/NC(=O)Cc1cc(=O)[nH][nH]1)c1ccc([N+](=O)[O-])cc1`, the growth inhibition was -1.21% (inactive). Consider `Cc1cc(-c2[nH]nc3c2C(c2ccc(Cl)cc2)C(C#N)=C(N)O3)c(C)s1` (configuration not stated), for which the growth inhibition is 8.76% (inactive). The same measure for `CSCCC1C(C#N)=C(N)Oc2n[nH]c(-c3cccs3)c21` (configuration not stated): 11.2% (inactive); for `CCCCc1ccc(NC(=O)CSCc2cc(=O)[nH][nH]2)cc1`: -4.95% (inactive); for `COc1ccc(/C=C2/C(=O)N(c3ccccc3)N=C2C)c(OC)c1`: 4.59% (inactive). As for `Cc1ccc(C2C(C#N)=C(N)Oc3n[nH]c(-c4cccs4)c32)cc1` (configuration not stated), the growth inhibition is 3.65% (inactive). The same measure for `COc1cccc(-c2[nH]nc3c2C(c2ccsc2)C(C#N)=C(N)O3)c1` (configuration not stated): 5.86% (inactive); for `CC(C)CCn1c(N)c(C(=O)NCc2cccs2)c2nc3ccccc3nc21`: -0.29% (inactive). For `N#Cc1ccc(-n2c(-c3ccccc3)nnc2-c2ccccc2)cc1C#N`, the growth inhibition was 6.39% (inactive).

`O=C(Cc1cc(=O)[nH][nH]1)N/N=C/c1cccc(Cl)c1Cl`: the growth inhibition was -0.74% (inactive) and -0.13% (inactive). Regarding `CCCCCCOC(=O)c1ccc(OC(=O)c2cccnc2)cc1`, the growth inhibition is 26.1% (inactive).

For the compound `O=C1NC2=C(CCc3ccccc32)C(c2ccccc2)N1` (configuration not stated), the growth inhibition is 1.42% (inactive). On to `Fc1ccc(Nc2nc(Oc3ccccc3F)nc(N3CCCC3)n2)cc1`, for which the growth inhibition was -4.07% (inactive). Consider `CCOc1ccccc1C1C(C#N)=C(N)Nc2onc(-c3ccccc3)c21` (configuration not stated), for which the growth inhibition is -3.07% (inactive). Turning to `COc1ccc(N(C(=O)COc2cccc(C)c2)S(=O)(=O)c2ccc(C)cc2)cc1`, the growth inhibition is 16.3% (inactive). The figure for `CCCc1c(-c2ccc(O)cc2)nn(-c2ccc(O)cc2)c1-c1ccc(O)cc1` is 6.41% (inactive); for `O=C(Cc1cc(=O)[nH][nH]1)N/N=C/c1cccc2ccccc12` it is 0.57% (inactive). Turning to `O=C(Cc1cc(=O)[nH][nH]1)N/N=C/c1ccccc1[N+](=O)[O-]`, the growth inhibition was -0.39% (inactive). For the compound `O=C(CSCc1cc(=O)[nH][nH]1)Nc1ccc(F)cc1`, the growth inhibition was 0.76% (inactive). Regarding `Cc1ccc(-c2cc(=O)[nH][nH]2)c(C)c1`, the growth inhibition is 1.66% (inactive). Turning to `O=c1cc(-c2ccc(Br)cc2)[nH][nH]1`, the growth inhibition is -4.27% (inactive). Regarding `CCOc1cc(C2C(C#N)=C(N)Oc3n[nH]c(-c4ccccc4)c32)ccc1O` (configuration not stated), the growth inhibition is 4.87% (inactive). With `N#CC1=C(N)Oc2n[nH]c(-c3cccs3)c2C1c1ccsc1` (configuration not stated), the growth inhibition is 2.91% (inactive). Turning to `CC(=O)N(C1CC(C)C(C#N)(C#N)C1(C#N)C#N)N(C)C` (configuration not stated), the growth inhibition was -7.63% (inactive).

With `CC1(C)N=C(SCC(=O)Nc2ccc(Cl)cc2)C(c2ccc(Cl)cc2)=N1`, the growth inhibition was 2.13% (inactive).

On to `O=C(Cc1cc(=O)[nH][nH]1)N/N=C/C(Cl)=C/c1ccccc1`, for which the growth inhibition was 6.66% (inactive). For the compound `Cc1ccc(SCc2[nH]nc3c2C2(CCSCC2)C(C#N)=C(N)O3)cc1`, the growth inhibition is 6.38% (inactive). Consider `Cc1ccc(O)c(N=CC2=C(O)c3ccccc3C2=O)c1`, for which the growth inhibition was 9.56% (inactive).
